From paper PMC3103436 (Journal of Translational Medicine, 2011)

Key:
[1] = BBR metabolites in rat liver after oral BBR, LC-MS/MS; format: in vivo, Male Wistar rats; settings: 3 hrs after BBR oral administration 200 mg/kg; for Detection of metabolite in rat liver: LC-MS/MS; for Relative level of metabolite in rat liver: among M1-M4
Procedure: Male Wistar rats (200-240 g, 8-week-old) purchased from Vital River Laboratories (Beijing, China) fasted overnight and were free access to water before drug administration. […] 2 g of the liver sample was washed with 5 mL normal saline, cut into small pieces and extracted with 3-fold volume acetonitrile. After vortexed for 3 min, the extract was centrifuged at 16000 g for 15 min at 4°C and the supernatant was diluted with 0.2% acetic acid. Ten microlitre dilution aliquot was injected into the LC-MS/MS system for analysis.
(§1) The flow-rate was 0.2 ml/min. […] The MS was operated in positive ESI mode. […] Data were analyzed by Xcalibur 1.2 software.

rCYP450 isoenzymes = assay: Detection of BBR metabolites after incubation with rCYP450 isoenzymes; format: in vitro ADME, human; settings: cell-free reaction, LC-MS/MS
Procedure: (§2) The incubation was performed in duplicates.
as §1

LDLR mRNA = LDLR mRNA real-time RT-PCR in HepG2 cells; format: cell-based, human; settings: HepG2, 40 μM, 8 hrs
Procedure: (§3) The Human hepatoma cell line HepG2 was obtained from the American Tissue Culture Collection (ATCC, USA). HepG2 cells were grown in Eagle's Minimum Essential Medium (GIBCO) supplemented with 10% fetal bovine serum (GIBCO), 1% non-essential amino acids (GIBCO) and 1% antibiotics (100 units/ml of penicillin and 100 μg/ml of streptomycin), and incubated at 37°C in a humidified atmosphere with 5% CO2.
(§4) The study compounds were diluted in culture medium prior to use.
(§5) Total cellular RNAs were isolated by the Ultraspec RNA lysis solution (Biotecxs Laboratory, Houston, TX) by following the vender's instruction. Total RNAs were reversely transcribed into cDNAs using the Reverse Transcription System (Promega, Madison, WI). Quantitative real time PCR was performed with these cDNAs as described previously, with β-Actin as an internal control. Normalized InsR or LDLR mRNA expression levels were plotted as fold of the untreated control. The primers used were described previously.

AMPK = assay: AMPK-alpha phosphorylation immunoblot in HepG2 cells; format: cell-based, human; settings: HepG2, 20 μM, 24 hrs
Procedure: as §3, §4
Sample cells were rinsed with phosphate-buffered saline and lysed in SDS-PAGE loading buffer. Cell lysates were subjected to 8% SDS-PAGE for protein separation, and protein bands were transferred onto polyvinylidene difluoride membranes (Millipore). The amount of protein and extent of phosphorylation were estimated using the following primary rabbit antibodies, anti-phospho-AMPK-α-Thr-172 antibody, anti-AMPK-α antibody as well as anti-β-actin antibody (Cell signaling Technology, USA). The secondary antibody was peroxidase-conjugated goat anti-rabbit antibody (Cell signaling Technology, USA).

human liver microsomes = assay: BBR metabolism in human liver microsomes (HLMs); format: in vitro ADME; settings: cell-free reaction, LC-MS/MS
Procedure: Incubation conditions were optimized to ensure the linearity with respect to the microsomal protein concentration and incubation time. […] After incubation of the mixture in a 37°C water bath with opening to the air, the reaction lasted for 30 min and was terminated by addition of 800 μl cold acetonitrile. Internal standard (40 μg/ml ampicillin, dissolved in acetonitrile) was added into the mixture, and then centrifuged at 16000 g for 15 min at 4°C. The supernatant was aspirated, followed by dilution in 0.2% acetic acid. 10 μl of the aliquot was injected into the LC-MS/MS system for analysis. Control samples were incubated without NADPH. The incubation was performed in duplicates.
as §1

InsR = assay: Double immune-staining and flow cytometry, cell-surface protein expression in HepG2; format: cell-based, human; settings: HepG2, 8 hrs; BBR 27 μM, simvastatin 1 μM, rosiglitazone 10 μM
Procedure: (§6) The Human hepatoma cell line HepG2 was obtained from the American Tissue Culture Collection (ATCC, USA). […] The study compounds were diluted in culture medium prior to use. […] The corresponding isotype-matched, nonspecific mouse and rabbit IgGs were used respectively as controls for nonspecific staining. After washing in PBS, cells were stained with a fluorescein isothiocyanate (FITC)-conjugated goat anti-mouse IgG (green color, Santa Cruz Biotechnology), as well as a tetramethyl rhodamine isothiocyanate (TRITC)-conjugated goat anti-rabbit IgG (red color, Santa Cruz Biotechnology). The fluorescence intensities were analyzed in a FACS (FACSort, Becton Dickinson).

LDLR = assay: as above; format: cell-based, human; settings: HepG2, 8 hrs; BBR 27 μM, simvastatin 1 μM, rosiglitazone 10 μM
Procedure: as §6

CYP2C9 = molecular target: T1, CYP2C9 (Homo sapiens, UniProt P11712); assay: BBR metabolism in recombinant human CYP450 isoenzyme; format: in vitro ADME; settings: BBR 20 μM, 50 pmol/ml rCYP450, 30 min
T1 construct: purchased BD Gentest; host or cells: baculovirus-insect cells
T1 sequence (P11712 whole entry): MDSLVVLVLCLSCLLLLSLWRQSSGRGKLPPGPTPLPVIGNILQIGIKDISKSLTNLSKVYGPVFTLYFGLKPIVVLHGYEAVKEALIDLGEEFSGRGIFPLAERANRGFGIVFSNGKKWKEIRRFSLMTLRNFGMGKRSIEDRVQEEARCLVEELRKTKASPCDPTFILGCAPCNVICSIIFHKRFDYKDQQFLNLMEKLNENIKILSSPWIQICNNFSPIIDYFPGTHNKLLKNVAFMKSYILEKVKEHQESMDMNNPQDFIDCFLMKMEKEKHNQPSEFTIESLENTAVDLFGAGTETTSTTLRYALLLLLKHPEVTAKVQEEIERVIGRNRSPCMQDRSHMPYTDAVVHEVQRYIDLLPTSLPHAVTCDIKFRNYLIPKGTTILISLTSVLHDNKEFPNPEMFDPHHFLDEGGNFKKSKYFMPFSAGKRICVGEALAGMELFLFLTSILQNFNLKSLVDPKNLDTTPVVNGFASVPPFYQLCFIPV
Procedure: The experiment was performed with the condition described in the method using HLMs for transformation. […] Control microsome prepared from insect cells, which were infected with wild-type baculovirus, severed as a negative control. The incubation was performed in duplicates.
Sample analysis was performed using an LC-MS/MS system (Thermo-Finnigan, San Jose, CA, USA), which consisted of a Surveyor LC pump with an on-line degasser, a Surveyor autosampler and a TSQ Quantum triple-quadrupole mass spectrometer equipped with an ESI probe. A Waters XTerra® MS C18 (2.1 ×50 mm, 3.5 μm) column (Milford, MA, USA) was used for separation at 25°C. The mobile phase consisted of 0.2% acetic acid in water (A) and 100% acetonitrile (B). The flow-rate was 0.2 ml/min. […] The column was allowed to equilibrate for 10 min after each run. Only the data from 2 min to 15 min was acquired by MS. The MS was operated in positive ESI mode. Nitrogen was used as both the sheath and auxiliary gas at a pressure of 35 and 10 arbitrary units, respectively. The spray voltage was set at 4.0 kV and the capillary temperature was at 270°C. […] The most abundant product ion of each chemical was chosen for selected reaction monitoring (SRM). Data were analyzed by Xcalibur 1.2 software.

InsR mRNA = InsR mRNA real-time RT-PCR in HepG2 cells; format: cell-based, human; settings: HepG2, 20 μM, 8 hrs, fold of untreated control
Procedure: as §3, §4, §5

[2] = ref [34]; cited from earlier work
[3] = oral administration, cited from earlier work
HLMs = assay: Chemical inhibition assays of BBR metabolism in HLMs; format: in vitro ADME, human; settings: BBR 15 μM, inhibitor 5 μM, 30 min, control without inhibitor = 100%
Procedure: as §2
The incubations were performed in duplicates.
as §1

Row | SMILES | Detection of metabolite in rat liver [1] | Detection of metabolite after incubating BBR with rCYP450s (rCYP450 isoenzymes) | Effect on LDLR mRNA expression (LDLR mRNA) | AMPK activation (AMPK-alpha phosphorylation) (AMPK) | Detection of metabolite after incubating BBR with HLMs (human liver microsomes) | Effect on cell-surface InsR protein expression (InsR) | Effect on cell-surface LDLR protein expression (LDLR) | also measured
1 | COc1cc2c(cc1O)CC[n+]1cc3c(OC)c(OC)ccc3cc1-2 [M4, jatrorrhizine] | detectable | not detectable | without effect | not significant | not found |  |  | 
2 | CCC(C)(C)C(=O)O[C@H]1C[C@@H](C)C=C2C=C[C@H](C)[C@H](CC[C@@H]3C[C@@H](O)CC(=O)O3)[C@H]21 [simvastatin] |  |  |  |  |  | not InsR | increased LDLR expression only | 
3 | COc1ccc2cc3[n+](cc2c1O)CCc1cc2c(cc1-3)OCO2 [M1, berberrubine] | detectable | not detectable | remained to be active | increased the activity of AMPK but with a less potency | not found |  |  | Relative level of metabolite in rat liver [1]: lowest; LDLR mRNA up-regulating activity as percent of that of BBR (LDLR mRNA): 35%
4 | COc1ccc2cc3[n+](cc2c1OC)CCc1cc2c(cc1-3)OCO2 [BBR, Berberine] |  |  | strongest up-regulator | most active compound |  | up-regulatory effect | up-regulatory effect | Transformation of BBR into metabolites by CYP2C9 (CYP2C9): very weak effect; Increase of InsR mRNA level (InsR mRNA): over 2 folds; Share of BBR entering into blood stream (absorption in human gut) [2]: less than 10%; Reduction of blood cholesterol, triglyceride and glucose ([3]; patients with hyperlipidemia and type 2 diabetes, ref [2],[3],[5]-[7]): significant reduction; Side-effects on liver, kidney and muscle ([3]; patients, ref [2],[5]): no side-effects
5 | CN(CCOc1ccc(CC2SC(=O)NC2=O)cc1)c1ccccn1 (stereo not drawn) [rosiglitazone] |  |  |  |  |  | effect on neither LDLR nor InsR | effect on neither LDLR nor InsR | 
6 | COc1ccc2cc3[n+](cc2c1OC)CCc1cc(O)c(O)cc1-3 [M3, demethyleneberberine] | detectable | detectable | without effect | not significant | detectable |  |  | 
7 | CC(=O)N1CCN(c2ccc(OCC3COC(Cn4ccnc4)(c4ccc(Cl)cc4Cl)O3)cc2)CC1 (stereo not drawn) [KET, ketoconazole] |  |  |  |  |  |  |  | Decrease of M2 formation (HLMs): not
8 | COc1c(O)ccc2cc3[n+](cc12)CCc1cc2c(cc1-3)OCO2 [M2, thalifendine] | detectable | detectable | remained to be active | increased the activity of AMPK but with a less potency | detectable |  |  | Relative level of metabolite in rat liver [1]: highest level; LDLR mRNA up-regulating activity as percent of that of BBR (LDLR mRNA): 26%
9 | O=c1cc(-c2ccccc2)oc2c1ccc1ccccc12 [ANF, α-naphthoflavone] |  |  |  |  |  |  |  | Decrease of M2 formation (HLMs): about 40%
